Values quoted from earlier work as cited in US8034921B2, “IRNA agents targeting CCR5 expressing cells and uses thereof” (Alnylam Pharmaceuticals, Inc., priority 2006, dated 2011).
pIC50: −log10 of the molar value. Read-outs that look alike come from different tables or passages of the source. Values belong to the molecule of their own block, whether it stands above or below them.

Key:
[1] = in vivo
CCR5 [2] = molecular target: T1, CCR5 (Homo sapiens, UniProt P51681); parameters: expressed in transfected cells; host or cells: CHO cells; conditions: CHO cells expressing recombinant human CCR5
CCR5 [3] = molecular target: T1, CCR5; parameters: expressed in transfected cells; host or cells: CHO cells; conditions: membranes from CHO cells stably expressing recombinant human CCR5; read-out: IC50, binding of [125I]RANTES
CCR5 [4] = molecular target: T1, CCR5; parameters: expressed in transfected cells; host or cells: CHO cells; conditions: CCR5-expressing CHO cells; read-out: IC50, inhibition of [125I]RANTES binding
HIV-1 gp120/CCR5 = HIV-1 gp120/CCR5 (Homo sapiens, UniProt P51681); conditions: read-out: IC50, HIV-1 gp120/CCR5 binding
[5] = rodents
[6] = healthy volunteers
cyano CCR5 = cyano CCR5 (Macaca fascicularis, UniProt P61814); conditions: cyano CCR5, transfected CHO cell membranes; read-out: IC50, CCR5 binding against [125I]MI-1α
CCR5 [7] = molecular target: T1, CCR5; conditions: read-out: IC50, inhibition of [125I]MIP-1α binding

T1 sequence (P51681 whole entry): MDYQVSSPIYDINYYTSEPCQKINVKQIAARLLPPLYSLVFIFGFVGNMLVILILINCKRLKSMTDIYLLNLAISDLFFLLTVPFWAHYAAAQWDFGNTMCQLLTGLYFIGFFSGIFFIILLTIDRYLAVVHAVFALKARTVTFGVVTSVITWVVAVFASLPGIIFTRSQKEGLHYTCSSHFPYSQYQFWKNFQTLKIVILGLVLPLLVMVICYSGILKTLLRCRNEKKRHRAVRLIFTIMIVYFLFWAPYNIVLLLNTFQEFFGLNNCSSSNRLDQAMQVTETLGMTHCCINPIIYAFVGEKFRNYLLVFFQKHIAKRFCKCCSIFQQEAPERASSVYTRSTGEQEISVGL
Sequence of HIV-1 gp120/CCR5 (P51681 whole entry): as above

bioavailability [1]: 100%
Compound: COC[C@@H](c1ccc(C(F)(F)F)cc1)N1CCN(C2(C)CCN(C(=O)c3c(C)ncnc3C)CC2)C[C@@H]1C [Compound 1]
viral load (HIV-infected patients; 48 HIV-infected patients, phase I): dose-dependent reduction in viral load
cardiovascular side effects (HIV-infected patients; human, in vivo): no cardiovascular side effects

IC50 for inhibition of CCL3 and CCL5 binding (CCR5 [2]): sub-nanomolar range
Compound: CCN(C(=O)Cc1ccc(S(C)(=O)=O)cc1)C1CCN(C(C)CC(NC(=O)OC2CCOCC2)c2ccccc2)CC1 (stereo not shown) [Compound 3]

pIC50 (CCR5 [3]): > 8.00
Compound: CCN(C(=O)Cc1ccc(S(=O)(=O)N(C)C)cc1)C1CCN(CCC(c2ccccc2)c2ccccc2)CC1 [Compound 5b]

pIC50 (CCR5 [3]): 7.31
Compound: CCN(C(=O)Nc1ccc(S(C)(=O)=O)cc1)C1CCN(CCC(c2ccccc2)c2ccccc2)CC1 [Compound 7]

pIC50 (CCR5 [4]): 8.47
Compound: CS(=O)(=O)N1CCC(C(=O)N(CCCN2CCC(Cc3ccc(S(N)(=O)=O)cc3)CC2)c2ccc(Cl)c(Cl)c2)CC1 [Compound 9a]

pIC50 (CCR5 [4]): 8.82
Compound: CNS(=O)(=O)c1ccc(CC2CCN(CCCN(C(=O)C3CCN(S(C)(=O)=O)CC3)c3ccc(Cl)c(Cl)c3)CC2)cc1 [Compound 9b]

pIC50 (CCR5 [4]): 8.92
Compound: CN(C)S(=O)(=O)c1ccc(CC2CCN(CCCN(C(=O)C3CCN(S(C)(=O)=O)CC3)c3ccc(Cl)c(Cl)c3)CC2)cc1 [Compound 9c]

pIC50 (CCR5 [4]): 8.89
Compound: CS(=O)(=O)N1CCC(C(=O)N(CCCN2CCC(Cc3ccc(S(=O)(=O)N4CCOCC4)cc3)CC2)c2ccc(Cl)c(Cl)c2)CC1 [Compound 9d]

Compound: CCCCN1C(=O)C(CC2CCCCC2)NC(=O)C12CCN(Cc1ccc3c(c1)OCCO3)CC2 (stereo not shown) [Compound 13]
pIC50 (HIV-1 gp120/CCR5): 9.00
activity against a wide range of R5 HIV-1 isolates (R5 HIV-1 isolates): potent activity
oral bioavailability [5]: favorable
QTc prolongation [6]: some incidents of QTc prolongation
serious adverse events [6]: No serious adverse events
tolerated dose ([6]; multiple dosing twice a day): 800 mg
tolerated dose ([6]; single dose): 1200 mg

pIC50 (CCR5 [4]): 9.00
Compound: O=C(Nc1ccc(Cl)cc1)N(CCCN1CCC(Cc2ccc(S(=O)(=O)N3CCOCC3)cc2)CC1)c1ccccc1 [Compound 15]

pIC50 (CCR5 [4]): 7.57
Compound: CCCCOCCOc1ccc(-c2ccc3c(c2)C=C(C(=O)Nc2ccc(CN(C)C4CCOCC4)cc2)CCS3(=O)=O)cc1 [Compound 17a]

pIC50 (CCR5 [4]): 8.44
Compound: CCCCOCCOc1ccc(-c2ccc3c(c2)C=C(C(=O)Nc2ccc(CN(C)C4CCOCC4)cc2)CCN3CC(C)C)cc1 [Compound 17b]

Compound: Cc1cccc(C)c1C(=O)N1CCC(C)(N2CCC(N(Cc3ccccc3)c3ccccc3)CC2)CC1 [Compound 19]
pIC50 (cyano CCR5): 9.15

pIC50 (CCR5 [7]): 8.36
Compound: C=CCN(C(=O)OCc1ccc([N+](=O)[O-])cc1)C1CCN(CCC(C)(CN(C)S(=O)(=O)c2ccccc2)c2ccccc2)CC1 (stereo not shown) [Compound 21]
